From patent US7625870B2, “Peptide substance restoring respiratory organs function” (“Access Bioscience” CJSC, priority 2004, dated 2009)
Peptide text beside a SMILES is read from it.

What was measured:
[1] = system: acute bacterial lung injury (Staphilococcus aureus 209) in rats; assay: Acute inflammation model, bacterial lung injury in rats (BALF cytogram, AM phagocytic activity); assay type: in vivo, rat
Description: The study was conducted on 120 white mongrel rats with average body weight 200-230 g. The animals were divided at random into 3 groups: 10 (intact), 60 (control) and 50 (experimental). In order to infect the animals there was used twenty-four-hours' culture of Staphilococcus aureus 209, which is tropic to rodents pulmonic tissue. There was also used a cellular suspension 5×10^6 cl/ml with Freind adjuvant (25% of total volume). Before infecting the animals were exposed to a supercooling at temperature −20° C. for 1 hour. Then the animals were infected using light thiopental narcosis (8 mg/100g of body weight) in sterile box. Injections of tetrapeptide were started in 2 days after infecting and were conducted for 7 days (daily, intraperitoneally in dose of 0,2 μg/kg). Control animals were administered with 0.9% NaCl solution. The animals were excluded from the trial on the 1, 3, 6, 10, […] and 20th days by the method of cervical dislocation. In each period there was conducted BAFL testing in order to estimate its cellular content and AM phagocytic activity, superoxid-anion (SA) production and total free radical production by BAFL cells. On the 1 and the 6th days of the study there was conducted lung morphological examination.

[2] = system: bleomycine lung fibrosis in rats; assay: Chronic fibrosing inflammatory process (bleomycine lung fibrosis) in rats; assay type: in vivo, rat; conditions: for Body weight / Relative lungs weight / Ventricular index, right ven./left ven. × 100%: 0,2 μg/kg intraperitoneally
Description: The experiment was carried out on 120 white mongrel rats weighing 130-160 g. The animals were divided at random into 3 groups, 40 animals in each. Then the animals were subjected to a thrice-repeated intratracheal administration of bleomycine solution (at a rate of 10.0 mg per kg of body weight) with 2 weeks interval. The tetrapeptide was administered intraperitoneally in the dose of […] of body weight in sterile 0,9% NaCl solution in the course of 7 days beginning from the 5h day after each bleomycine installation.
10 animals of each group were excluded from the experiment by the method of cervical dislocation on the 15, 30, 45 and 60 days after experiment onset.
In each period there was conducted broncho-alveolar lavage fluid (BALF) test in order to estimate its cellular content, and alveolar macrophages phagocytic activity, production of superoxide-anion and total free radical production by BALF cells. In the blood and BALF there were estimated the number of circulating immune complexes (CIC). After the last bleomycin administration there was conducted lung examination.

[3] = day 3, 0,2 μg/kg intraperitoneally
[4] = day 6, 0,2 μg/kg intraperitoneally
[5] = day 10, 0,2 μg/kg intraperitoneally
[6] = day 15, 0,2 μg/kg intraperitoneally
[7] = day 20, 0,2 μg/kg intraperitoneally
[8] = in words, 0,2 μg/kg intraperitoneally

CC(C)C[C@H](NC(=O)[C@H](CC(=O)O)NC(=O)[C@H](CCC(=O)O)NC(=O)[C@H](C)N)C(=O)O [Tetrapeptide, L-alanyl-L-glutamyl-L-aspartyl-L-leucine] (H-AEDL-OH)
BAFL cytogram, Lymphocytes [1, 3]: 1.68 ± 0.16 ×10^6 cells/lungs
BAFL cytogram, Macrophages [1, 3]: 29.7 ± 2.8*+ ×10^6 cells/lungs
BAFL cytogram, Neutrophiles [1, 3]: 6.98 ± 1.48*+ ×10^6 cells/lungs
Phagocytic index (alveolar macrophages) [1, 3]: 52.4 ± 2.9*+
Phagocytic number (alveolar macrophages) [1, 3]: 5.83 ± 0.37*+
BAFL cytogram, Lymphocytes [1, 4]: 0.86 ± 0.23 ×10^6 cells/lungs
BAFL cytogram, Macrophages [1, 4]: 24.9 ± 1.2*+ ×10^6 cells/lungs
BAFL cytogram, Neutrophiles [1, 4]: 0.52 ± 0.18 ×10^6 cells/lungs
Phagocytic index (alveolar macrophages) [1, 4]: 41.5 ± 3.1+
Phagocytic number (alveolar macrophages) [1, 4]: 4.98 ± 0.28*+
BAFL cytogram, Lymphocytes [1, 5]: 0.59 ± 0.28 ×10^6 cells/lungs
BAFL cytogram, Macrophages [1, 5]: 19.2 ± 2.8*+ ×10^6 cells/lungs
BAFL cytogram, Neutrophiles [1, 5]: 0.31 ± 0.18 ×10^6 cells/lungs
Phagocytic index (alveolar macrophages) [1, 5]: 49.2 ± 2.8+
Phagocytic number (alveolar macrophages) [1, 5]: 2.98 ± 0.32+
BAFL cytogram, Lymphocytes [1, 6]: 0.79 ± 0.20 ×10^6 cells/lungs
BAFL cytogram, Macrophages [1, 6]: 16.3 ± 2.8 ×10^6 cells/lungs
BAFL cytogram, Neutrophiles [1, 6]: 0.21 ± 0.16 ×10^6 cells/lungs
Phagocytic index (alveolar macrophages) [1, 6]: 55.9 ± 4.2
Phagocytic number (alveolar macrophages) [1, 6]: 3.74 ± 0.25
BAFL cytogram, Lymphocytes [1, 7]: 0.56 ± 0.17 ×10^6 cells/lungs
BAFL cytogram, Macrophages [1, 7]: 14.6 ± 2.1 ×10^6 cells/lungs
BAFL cytogram, Neutrophiles [1, 7]: 0.25 ± 0.11 ×10^6 cells/lungs
Phagocytic index (alveolar macrophages) [1, 7]: 49.3 ± 3.6
Phagocytic number (alveolar macrophages) [1, 7]: 3.68 ± 0.31
basal and zymosan-stimulated production of SA (superoxid-anion) by AM [1, 8]: reliably increases
normalization of free radical production of BALF cells [1, 8]: more rapid normalization
processes of lung tissue reparation ([1]; in words, dose of 0,2 μg/kg of body weight): speeding-up
number of lymphocytes in BAFL ([2]; 30th day): 1,75±0,45 ×10^6 cells/lungs
AM phagocytic activity, phagocytic index ([2]; 45th day): 75,6±4,5
AM phagocytic activity, phagocytic index ([2]; 60th day): 78,6±3,2
number of lymphocytes in BAFL ([2]; 60th day): 1,11±0,15 ×10^6 cells/lungs
Body weight ([2]; day 15): 151.6 ± 5.6 g
Relative lungs weight ([2]; day 15): 11.3 ± 0.6 mg/g of body weight
Ventricular index, right ven./left ven. × 100% ([2]; day 15): 34.2 ± 1.8+ %
BAFL large CIC ([2]; day 15): 42.6 ± 13.1 units
BAFL medium CIC ([2]; day 15): 37.6 ± 7.6 units
Blood large CIC ([2]; day 15, blood serum): 47.2 ± 12.3 units
Blood medium CIC ([2]; day 15, blood serum): 113.4 ± 11.6+ units
Body weight ([2]; day 30): 176.8 ± 5.8 g
Relative lungs weight ([2]; day 30): 12.8 ± 0.4 mg/g of body weight
Ventricular index, right ven./left ven. × 100% ([2]; day 30): 37.2 ± 1.5*+ %
BAFL large CIC ([2]; day 30): 52.3 ± 8.3*+ units
BAFL medium CIC ([2]; day 30): 72.3 ± 8.1*+ units
Blood large CIC ([2]; day 30, blood serum): 85.9 ± 12.3*+ units
